Blank lines part the entries; values can stand above or below the compound they belong to.
Molecular target: T1, recombinant guanylate cyclase reporter cell line (Rattus norvegicus, UniProt P19686+P20595)
T1 construct: expressed in transfected cells; host or cells: recombinant reporter cell line
T1 sequence (P19686 1-690): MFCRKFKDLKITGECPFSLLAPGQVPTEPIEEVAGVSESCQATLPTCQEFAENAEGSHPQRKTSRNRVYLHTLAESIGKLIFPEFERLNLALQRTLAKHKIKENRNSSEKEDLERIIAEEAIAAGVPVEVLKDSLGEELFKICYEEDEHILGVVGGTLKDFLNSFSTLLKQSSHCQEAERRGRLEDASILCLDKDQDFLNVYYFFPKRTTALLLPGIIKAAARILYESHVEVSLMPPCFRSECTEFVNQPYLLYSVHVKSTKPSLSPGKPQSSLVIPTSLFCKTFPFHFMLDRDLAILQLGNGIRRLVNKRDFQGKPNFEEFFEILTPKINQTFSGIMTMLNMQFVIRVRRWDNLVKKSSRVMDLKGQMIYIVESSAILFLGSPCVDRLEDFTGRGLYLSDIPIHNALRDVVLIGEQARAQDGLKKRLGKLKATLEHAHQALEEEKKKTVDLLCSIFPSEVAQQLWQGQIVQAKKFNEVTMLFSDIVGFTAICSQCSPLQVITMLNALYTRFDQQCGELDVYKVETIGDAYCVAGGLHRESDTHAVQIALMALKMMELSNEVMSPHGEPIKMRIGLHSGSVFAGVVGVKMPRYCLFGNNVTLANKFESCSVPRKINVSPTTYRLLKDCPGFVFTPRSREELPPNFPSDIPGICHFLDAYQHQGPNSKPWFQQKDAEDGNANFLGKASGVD
T1 sequence (P20595 1-619): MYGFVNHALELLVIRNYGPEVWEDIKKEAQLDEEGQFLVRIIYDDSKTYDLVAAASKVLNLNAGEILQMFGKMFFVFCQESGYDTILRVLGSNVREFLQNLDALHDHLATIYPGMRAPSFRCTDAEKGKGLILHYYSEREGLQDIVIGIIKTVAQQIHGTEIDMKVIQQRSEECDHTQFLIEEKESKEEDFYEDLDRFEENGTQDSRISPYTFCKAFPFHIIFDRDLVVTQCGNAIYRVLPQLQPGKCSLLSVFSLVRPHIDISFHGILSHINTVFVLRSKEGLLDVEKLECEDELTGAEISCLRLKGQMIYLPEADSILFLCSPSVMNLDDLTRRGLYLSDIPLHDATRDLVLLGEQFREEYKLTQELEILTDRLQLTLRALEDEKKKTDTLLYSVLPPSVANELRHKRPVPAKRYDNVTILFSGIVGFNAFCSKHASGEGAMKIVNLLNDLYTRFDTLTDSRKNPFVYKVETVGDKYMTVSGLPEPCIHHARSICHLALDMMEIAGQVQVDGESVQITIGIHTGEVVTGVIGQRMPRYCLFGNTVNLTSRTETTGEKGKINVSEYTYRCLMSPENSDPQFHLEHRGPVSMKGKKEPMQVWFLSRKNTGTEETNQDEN
Experiment: Action on recombinant guanylate cyclase reporter cell line
Format: cell-based
Details: in some cases mean values from individual determinations
Procedure: B-2. Action on Recombinant Guanylate Cyclase Reporter Cell Line
The cellular action of the compounds according to the invention is determined on a recombinant guanylate cyclase reporter cell line, as described in F. Wunder et al., Anal. Biochem. 339, 104-112 (2005).
Representative MEC values (MEC=minimal effective concentration) for the compounds according to the invention are shown in the following table (in some cases as mean values obtained from individual determinations): […]

SMILES: Cc1nc2c(OCc3c(F)cccc3F)cccn2c1C(=O)NC1CNc2ccccc2C1 (racemic) [Example 75, rac-8-[(2,6-Difluorobenzyl)oxy]-2-methyl-N-(1,2,3,4-tetrahydroquinolin-3-yl)imidazo[1,2-a]-pyridine-3-carboxamide]
MEC (minimal effective concentration): 1.00 µM

SMILES: Cc1cc(OCc2c(F)cccc2F)c2nc(C)c(C(=O)NC3CNc4ccccc4C3)n2c1 (racemic) [Example 76, rac-8-[(2,6-difluorobenzyl)oxy]-2,6-dimethyl-N-(1,2,3,4-tetrahydroquinolin-3-yl)imidazo[1,2-a]-pyridine-3-carboxamide]
MEC (minimal effective concentration): 0.30 µM

SMILES: Cc1cc(OCc2c(F)cccc2F)c2nc(C)c(C(=O)NC(C)C3CCN(C)CC3)n2c1 (racemic) [Example 77, rac-8-[(2,6-difluorobenzyl)oxy]-2,6-dimethyl-N-[1-(1-methylpiperidin-4-yl)ethyl]imidazo[1,2-a]-pyridine-3-carboxamide]
MEC (minimal effective concentration): 1.00 µM

SMILES: Cc1nc2c(OCc3c(F)cccc3F)cc(Cl)cn2c1C(=O)NC(C)C1CCN(C)CC1 (racemic) [Example 78, rac-6-chloro-8-[(2,6-difluorobenzyl)oxy]-2-methyl-N-[1-(1-methylpiperidin-4-yl)ethyl]-imidazo[1,2-a]pyridine-3-carboxamide]
MEC (minimal effective concentration): 1.00 µM

SMILES: Cc1nc2c(OCc3c(F)cccc3F)cccn2c1C(=O)NCC1NCCc2ccccc21 (racemic) [Example 80, rac-8-[(2,6-difluorobenzyl)oxy]-2-methyl-N-(1,2,3,4-tetrahydroisoquinolin-1-ylmethyl)-imidazo[1,2-a]pyridine-3-carboxamide]
MEC (minimal effective concentration): 1.00 µM

SMILES: Cc1nc2c(OCc3c(F)cccc3F)cccn2c1C(=O)NC1CCCN(C)C1 (racemic) [Example 84, rac-8-[(2,6-difluorobenzyl)oxy]-2-methyl-N-(1-methylpiperidin-3-yl)imidazo[1,2-a]-pyridine-3-carboxamide]
MEC (minimal effective concentration): 1.00 µM

SMILES: Cc1nc2c(OCc3c(F)cccc3F)cccn2c1C(=O)NC1CCN(Cc2ccccc2)C1 (racemic) [Example 85, rac-N-(1-benzylpyrrolidin-3-yl)-8-[(2,6-difluoro-benzyl)oxy]-2-methylimidazo[1,2-a]-pyridine-3-carboxamide]
MEC (minimal effective concentration): 1.00 µM

SMILES: Cc1nc2c(OCc3c(F)cccc3F)cc(Cl)cn2c1C(=O)NCC1CCCCN1 (racemic) [Example 118, rac-6-chloro-8-[(2,6-difluorobenzyl)oxy]-2-methyl-N-(piperidin-2-ylmethyl)imidazo[1,2-a]-pyridine-3-carboxamide]
MEC (minimal effective concentration): 1.00 µM

SMILES: Cc1nc2c(OCc3c(F)cccc3F)cccn2c1C(=O)NC12CNCCC1C2 (racemic) [Example 125, rac-N-(3-Azabicyclo[4.1.0]hept-1-yl)-8-[(2,6-difluorobenzyl)oxy]-2-methylimidazo[1,2-a]-pyridine-3-carboxamide]
MEC (minimal effective concentration): 1.00 µM

SMILES: Cc1nc2c(OCc3c(F)cccc3F)cccn2c1C(=O)NCC(C)N1CCOCC1 (racemic) [Example 132, rac-8-[(2,6-difluorobenzyl)oxy]-2-methyl-N-[2-(morpholin-4-yl)propyl]imidazo[1,2-a]pyridine-3-carboxamide]
MEC (minimal effective concentration): 1.00 µM

SMILES: Cc1nc2c(OCc3c(F)cccc3F)cccn2c1C(=O)NC(CN1CCOCC1)c1ccccc1 (racemic) [Example 134, rac-8-[(2,6-difluorobenzyl)oxy]-2-methyl-N-[2-(morpholin-4-yl)-1-phenylethyl]imidazo[1,2-a]-pyridine-3-carboxamide]
MEC (minimal effective concentration): 3.00 µM

The remaining lines, values ahead:

MEC (minimal effective concentration): 1.00 µM
SMILES: Cc1cc(OCc2c(F)cccc2F)c2nc(C)c(C(=O)NCCNC(C)C)n2c1 (racemic) [Example 135, rac-8-[(2,6-difluorobenzyl)oxy]-N-[2-(isopropylamino)ethyl]-2,6-dimethylimidazo[1,2-a]pyridine-3-carboxamide]

MEC (minimal effective concentration): 0.30 µM
SMILES: Cc1cc(OCc2c(F)cccc2F)c2nc(C)c(C(=O)NCC(C)N3CCOCC3)n2c1 (racemic) [Example 138, rac-8-[(2,6-difluorobenzyl)oxy]-2,6-dimethyl-N-[2-(morpholin-4-yl)propyl]imidazo[1,2-a]-pyridine-3-carboxamide]

MEC (minimal effective concentration): 1.00 µM
SMILES: Cc1nc2c(OCc3c(F)cccc3F)cccn2c1C(=O)NCC(C(C)C)N(C)C (racemic) [Example 142, rac-8-[(2,6-difluorobenzyl)oxy]-N-[2-(dimethyl-amino)-3-methylbutyl]-2-methylimidazo[1,2-a]-pyridine-3-carboxamide]

MEC (minimal effective concentration): 0.30 µM
SMILES: Cc1nc2c(OCc3c(F)cccc3F)cc(Cl)cn2c1C(=O)NCC(N)CC(F)(F)F (racemic) [Example 147, rac-N-(2-amino-4,4,4-trifluorobutyl)-6-chloro-8-[(2,6-difluorobenzyl)oxy]-2-methylimidazo[1,2-a]pyridine-3-carboxamide]

MEC (minimal effective concentration): 0.30 µM
SMILES: CCC(C)(N)CNC(=O)c1c(C)nc2c(OCc3c(F)cccc3F)cc(Cl)cn12 (racemic) [Example 157, rac-N-(2-amino-2-methylbutyl)-6-chloro-8-[(2,6-difluorobenzyl)oxy]-2-methylimidazo[1,2-a]-pyridine-3-carboxamide]

MEC (minimal effective concentration): 0.30 µM
SMILES: COCC(C)(N)CNC(=O)c1c(C)nc2c(OCc3c(F)cccc3F)cc(Cl)cn12 (racemic) [Example 159, rac-N-(2-amino-3-methoxy-2-methylpropyl)-6-chloro-8-[(2,6-difluorobenzyl)oxy]-2-methylimidazo[1,2-a]pyridine-3-carboxamide]

MEC (minimal effective concentration): 0.30 µM
SMILES: COCC(C)(N)CNC(=O)c1c(C)nc2c(OCc3c(F)cccc3F)cc(C)cn12 (racemic) [Example 166, rac-N-(2-amino-3-methoxy-2-methylpropyl)-8-[(2,6-difluorobenzyl)oxy]-2,6-dimethylimidazo[1,2-a]pyridine-3-carboxamide]

MEC (minimal effective concentration): 0.10 µM
SMILES: Cc1nc2c(OCc3c(F)cccc3F)cccn2c1C(=O)NCC(C)(N)CC(C)C (racemic) [Example 202, rac-N-(2-Amino-2,4-dimethylpentyl)-8-[(2,6-difluorobenzyl)oxy]-2-methylimidazo[1,2-a]pyridine-3-carboxamide]

MEC (minimal effective concentration): 0.30 µM
SMILES: Cc1nc2c(OCc3c(F)cccc3F)cccn2c1C(=O)NCC(N)COC(C)C (racemic) [Example 205, rac-N-(2-Amino-3-isopropoxypropyl)-8-[(2,6-difluorobenzyl)oxy]-2-methylimidazo[1,2-a]-pyridine-3-carboxamide]

MEC (minimal effective concentration): 0.30 µM
SMILES: Cc1cc(OCc2c(F)cccc2F)c2nc(C)c(C(=O)NCC(N)COC(C)C)n2c1 (racemic) [Example 206, rac-N-(2-Amino-3-isopropoxypropyl)-8-[(2,6-difluorobenzyl)oxy]-2,6-dimethylimidazo[1,2-a]-pyridine-3-carboxamide]

Source: US20150274719A1, “AMINO-SUBSTITUTED IMIDAZO[1,2-A]PYRIDINECARBOXAMIDES AND THEIR USE” (BAYER PHARMA AKTIENGESELLSCHAFT, priority 2012, published 2015)
